Measurements reported in US20110098296A1, “Thiazole And Oxazole Kinase Inhibitors” (priority 2007, published 2011).
Counter-ions that a name gives are not always drawn.

Experiments:
[1] = biological target: T1, EGFR (Homo sapiens, UniProt P00533); assay: EGFR substrate phosphorylation assay (HTRF); type: biochemical; settings: Method (A): Enzyme Mix incubated with compound at 20° C. for 1 hr, reaction started by adding Substrate Mix
T1 construct: made in house; host or cells: baculovirus expression system
T1 sequence (P00533 25-1210): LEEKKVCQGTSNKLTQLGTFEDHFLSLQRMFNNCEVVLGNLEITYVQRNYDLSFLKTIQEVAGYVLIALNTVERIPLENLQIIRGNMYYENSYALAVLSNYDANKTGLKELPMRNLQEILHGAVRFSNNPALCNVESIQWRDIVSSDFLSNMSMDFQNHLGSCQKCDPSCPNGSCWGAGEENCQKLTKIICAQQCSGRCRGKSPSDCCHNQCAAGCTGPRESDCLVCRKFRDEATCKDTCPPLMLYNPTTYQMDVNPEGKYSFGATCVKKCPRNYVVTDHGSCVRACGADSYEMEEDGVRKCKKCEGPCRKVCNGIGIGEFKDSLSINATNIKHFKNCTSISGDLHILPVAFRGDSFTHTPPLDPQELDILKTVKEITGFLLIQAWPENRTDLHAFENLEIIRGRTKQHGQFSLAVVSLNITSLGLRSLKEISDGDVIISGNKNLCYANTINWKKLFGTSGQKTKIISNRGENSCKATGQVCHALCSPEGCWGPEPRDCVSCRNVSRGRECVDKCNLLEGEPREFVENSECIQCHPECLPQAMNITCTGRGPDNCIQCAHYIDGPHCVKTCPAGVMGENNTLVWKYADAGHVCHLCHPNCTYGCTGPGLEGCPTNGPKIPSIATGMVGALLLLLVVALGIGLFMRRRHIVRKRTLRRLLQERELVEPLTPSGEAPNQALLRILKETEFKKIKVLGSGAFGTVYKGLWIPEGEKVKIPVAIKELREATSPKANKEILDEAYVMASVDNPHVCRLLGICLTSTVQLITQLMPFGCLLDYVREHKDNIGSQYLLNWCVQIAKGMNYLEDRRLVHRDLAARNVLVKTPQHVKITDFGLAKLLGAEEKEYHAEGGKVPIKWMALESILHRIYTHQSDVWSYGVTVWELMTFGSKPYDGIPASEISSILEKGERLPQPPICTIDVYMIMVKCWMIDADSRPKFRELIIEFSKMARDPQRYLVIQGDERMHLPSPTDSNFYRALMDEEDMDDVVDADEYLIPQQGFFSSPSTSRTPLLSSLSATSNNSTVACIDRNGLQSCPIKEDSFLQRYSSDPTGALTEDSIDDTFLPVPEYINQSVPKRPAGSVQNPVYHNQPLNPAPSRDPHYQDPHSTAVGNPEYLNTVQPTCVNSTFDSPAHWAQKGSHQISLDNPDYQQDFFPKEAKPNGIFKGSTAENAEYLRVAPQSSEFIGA
Experimental: (§1) Compounds of the present invention were tested for EGFR and ErbB-2 protein tyrosine kinase inhibitory activity in substrate phosphorylation assays using enzymes purified from a baculovirus expression system. Reagent production was conducted essentially as described in Brignola, P. S., et al., (2002) J. Biol. Chem. 277(2):1576-1585.
(§2) The method measures the ability of the isolated enzyme to catalyse the transfer of the gamma-phosphate from ATP onto the tyrosine residue of a biotinylated synthetic peptide referenced “Peptide C” in Brignola, P. S., et al., (2002) J. Biol. Chem. 277(2):1576-1585. The extent of tyrosine phosphorylation was measured using an anti-phosphotyrosine antibody, and quantified by homogenous time-resolved fluorescence (HTRF).
(§3) Reactions were performed in black 384-well polystyrene flat-bottom plates in a final volume of 20 μl. Assays were performed by adding 10 μl of each of the following solutions, Substrate Mix and Enzyme Mix: The Substrate Mix contained 100 mM 3-[N-morpholino]propanesulfonic acid (MOPS) (pH 7.5), 2 mM MnCl2, 20 μM ATP, 0.01% Tween-20, 0.1 mg/mL (BSA), 0.8 uM peptide substrate, and 1 mM dithiothreitol. The Enzyme Mix contained 100 mM MOPS (pH 7.5); 0.01% Tween-20; 0.1 mg/mL BSA, and either 0.8 nM EGFR, 10 nM ErbB2, or 1 nM ErbB4
(§4) During the course of these studies, two separate methods have been used to measure the potency of compounds. In Method A (indicated as “(A)” in the tables below), the Enzyme Mix was added to the compound plates and the plates were incubated at 20° C. for 1 hr. The reactions were then started by adding the Substrate Mix. In Method B (indicated as “(B)” in the tables below), the Substrate Mix was added to the compound plates first, then the reaction was started by adding the Enzyme Mix.
(§5) After initiating the reaction with either method describe above, the reactions were allowed to proceed for 90 minutes at 20° C. The reactions were then terminated by the addition of 20 μL 100 mM EDTA to each well. 40 μL/well of HTRF detection mix were added to the assay plates. The final concentrations of the detection reagents were: 100 mM HEPES (pH7.5), 0.1 mg/mL BSA, 15 nM streptavidin-labeled allophycocyanin (PerkinElmer), and 1 nM europium-labeled anti-phosphotyrosine antibody (PerkinElmer). Assay plates were left unsealed and were counted in a Wallac Multilabel Counter 1420 (PerkinElmer).
(§6) Compounds under analysis were dissolved in dimethylsulfoxide (DMSO) to 1.0 mM and serially diluted 1 to 3 with DMSO through twelve dilutions. 1 μL of each concentration was transferred to the corresponding well of an assay plate. This creates a final compound concentration range from 0.00027 to 47.6 μM.
(§7) The data for dose responses were plotted as % Inhibition calculated with the data reduction formula 100*(1−(U1−C2)/(C1−C2)) versus concentration of compound where U1 is the unknown value, C1 is the average control value obtained for 4.76% DMSO, and C2 is the average control value obtained for 0.035 M EDTA. Data were fitted with a curve described by:
(§8) where Vmax is the upper asymptote, Y2 is the Y intercept, and K is the IC50. The results for each compound were recorded as pIC50s, calculated as follows: […]

[2] = system: BT474 tumor cells; assay: Method C: Cell Growth Inhibition Assay (CellTiter-Glo), BT474; type: cell-based; settings: Homo sapiens, BT-474, 72 h, 3 days, 4-parameter fit
Experimental: (§9) Human breast tumor cells (BT474) were cultured in RPMI (Mediatech 50-011-PB), containing 10% FBS (JRH Biosciences 12176) and 1% penicillin-streptomycin (Invitrogen 15140). Human head and neck tumor cells (HN5) were cultured in high glucose DMEM (Mediatech 50-013-PB) containing 10% FBS and 1% penicillin-streptomycin. Human colon tumor cells (Colo205) were cultured in RPMI (Mediatech 50-020-PB) containing 10% FBS and 1% penicillin-streptomycin. Human melanoma cancer cells (SK-MEL-28) were cultured in EMEM with nonessential amino acids (Mediatech 50-011-PB) containing 10% FBS, 1% sodium pyruvate (JT Baker 3354-04), and 1% penicillin-streptomycin. Human melanoma cancer cells (A375P F11s) were cultured in RPMI (Mediatech 50-020-PB) containing 10% FBS, 1% sodium pyruvate, and 1% penicillin-streptomycin. Human colon cancer cells (HT-29) were cultured in high glucose DMEM (Mediatech 50-013-PB) containing 10% FBS and 1% penicillin-streptomycin. Human melanoma cancer cells (SK-MEL-3) were cultured in McCoy's 5A (50-025-PB) containing 15% FBS, and 1% penicillin-streptomycin. All cell lines were maintained at 37° C. in a humidified 5% CO2, 95% air incubator. Cells were harvested using trypsin/EDTA (Invitrogen 25200), counted using an haemocytometer, and plated. For 96-well assays (using white full-area NUNC plates cat. #136102), cells were plated in 105 μL at the following densities (cells/well): HN5, 500; Colo205, 500; SK-MEL-28, 500; A375P-F11s, 500; HT-29, 500; SK-MEL-3, 500; and BT474, 3000. For 384-well assays (white full-area NUNC plates, cat. #781080), cells were plated in 48 μL at the following densities (cells/well): HN5, 500; Colo205, 500; SK-MEL-28, 500; A375P-F11s, 500; HT29, 500; SK-MEL-3, 500; and BT474, 2000.
(§10) The next day, compounds were diluted as follow: For 96-well assays, 13.5 μL of compound in DMSO were diluted using nine (9) serial 1:3 dilutions of 4.5 μL in 9 μL of DMSO. Medium (270 μl/well of RPMI with 10% FBS and 1% penicillin-streptomycin) was added to the plates. Aliquots (7 μl) were added to cells in the final assay giving a final DMSO concentration of 0.2%. For 384-well assays, 15 μL of compound in DMSO were diluted using nine (9) serial 1:3 dilutions of 5 μL in 10 μL of DMSO, followed by a further dilution of 5 μL of compound with 95 μL of medium, of which 2 μL were added to cells in the final assay giving a final DMSO concentration of 0.2%. Cells were incubated at 37° C., 5% CO2 for 3 days.
(§11) Total ATP was measured (as a surrogate estimate of cell number) using CellTiter-Glo® reagent (Promega G7571). Briefly, plates were removed from the incubator and allowed to equilibrate to room temperature for 30 minutes. CellTiter-Glo® (25 μL or 55 μL for 384-well or 96-well assays, respectively) reagent was added to each well and plates were shaken on an orbital plate shaker for 2 mins. Plates were incubated without shaking for a further 30 mins and read on an LJL Analyst GT reader in luminometer mode with an integration time of 0.5 seconds per well. Percent inhibition of cell growth was calculated relative to DMSO vehicle-treated control wells. Concentration of compound required to give 50% inhibition of vehicle-treated control cell growth (IC50) was interpolated using a 4-parameter fit for determining IC50 using the following equation: Y=A+((B−A)/(1+((C/X)̂D))) where X=IC50.

[3] = system: Colo205 tumor cells; assay: Method C: Cell Growth Inhibition Assay (CellTiter-Glo), Colo205; type: cell-based; settings: Homo sapiens, COLO 205, 72 h, 3 days, 4-parameter fit
Experimental: as §9, §10, §11

[4] = system: HN5 tumor cells; assay: Method C: Cell Growth Inhibition Assay (CellTiter-Glo), HN5; type: cell-based; settings: Homo sapiens, 72 h, 3 days, 4-parameter fit
Experimental: as §9, §10, §11

[5] = system: SK-MEL-28 tumor cells; assay: Method C: Cell Growth Inhibition Assay (CellTiter-Glo), SK-MEL-28; type: cell-based; settings: Homo sapiens, SK-MEL-28, 72 h, 3 days, 4-parameter fit
Experimental: as §9, §10, §11

[6] = biological target: T2, ErbB2 (Homo sapiens, UniProt P04626); assay: ErbB-2 substrate phosphorylation assay (HTRF); type: biochemical; settings: Method (A): Enzyme Mix incubated with compound at 20° C. for 1 hr, reaction started by adding Substrate Mix
T2 construct: made in house; host or cells: baculovirus expression system
T2 sequence (P04626 23-1255): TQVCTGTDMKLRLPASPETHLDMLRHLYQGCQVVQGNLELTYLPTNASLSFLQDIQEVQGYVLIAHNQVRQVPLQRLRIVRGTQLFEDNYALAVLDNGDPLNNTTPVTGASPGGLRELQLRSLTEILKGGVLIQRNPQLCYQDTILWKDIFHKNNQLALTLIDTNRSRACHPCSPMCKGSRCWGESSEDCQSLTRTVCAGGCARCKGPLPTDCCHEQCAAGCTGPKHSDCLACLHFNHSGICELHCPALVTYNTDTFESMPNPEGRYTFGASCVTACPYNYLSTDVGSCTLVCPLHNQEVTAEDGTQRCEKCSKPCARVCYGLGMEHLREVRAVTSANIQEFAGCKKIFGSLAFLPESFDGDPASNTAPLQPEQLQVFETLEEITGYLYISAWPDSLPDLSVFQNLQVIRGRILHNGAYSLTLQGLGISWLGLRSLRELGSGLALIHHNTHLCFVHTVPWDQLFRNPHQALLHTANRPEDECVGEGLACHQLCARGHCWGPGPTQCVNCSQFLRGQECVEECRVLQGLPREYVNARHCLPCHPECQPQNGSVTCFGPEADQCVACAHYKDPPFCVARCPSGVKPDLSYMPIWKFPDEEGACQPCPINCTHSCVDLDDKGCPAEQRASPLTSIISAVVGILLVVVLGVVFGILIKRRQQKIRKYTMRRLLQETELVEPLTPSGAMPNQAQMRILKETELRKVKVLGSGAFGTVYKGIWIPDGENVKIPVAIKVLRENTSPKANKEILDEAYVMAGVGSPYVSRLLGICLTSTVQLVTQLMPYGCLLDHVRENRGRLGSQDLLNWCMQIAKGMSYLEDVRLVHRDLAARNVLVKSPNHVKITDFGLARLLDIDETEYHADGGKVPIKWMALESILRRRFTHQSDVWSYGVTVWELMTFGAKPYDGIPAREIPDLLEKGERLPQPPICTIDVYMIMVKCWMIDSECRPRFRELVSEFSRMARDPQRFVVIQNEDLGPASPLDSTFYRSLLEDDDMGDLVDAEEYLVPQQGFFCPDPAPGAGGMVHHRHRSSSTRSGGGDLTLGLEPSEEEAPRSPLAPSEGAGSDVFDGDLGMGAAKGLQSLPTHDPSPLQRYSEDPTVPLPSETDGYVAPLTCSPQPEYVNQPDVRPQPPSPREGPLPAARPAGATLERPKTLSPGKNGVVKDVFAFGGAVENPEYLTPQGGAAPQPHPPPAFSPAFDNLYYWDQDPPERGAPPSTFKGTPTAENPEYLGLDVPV
Experimental: as §1, §2, §3, §4, §5, §6, §7, §8

| IC50 [1] | IC50 [2] | IC50 [3] | IC50 [4] | IC50 [5] | IC50 [6] | Structure (SMILES) |
| --- | --- | --- | --- | --- | --- | --- |
| < 100 nM | 100 to 1000 nM | > 1000 nM | 100 to 1000 nM | > 1000 nM | < 100 nM | CCN(CC)CCOc1cccc(Nc2nccc(-c3scnc3-c3cccc(NC(=O)c4cc(F)ccc4F)c3)n2)c1 [Example 97, N-[3-(5-{2-[(3-{[2-(Diethylamino)ethyl]oxy}phenyl)amino]-4-pyrimidinyl}-1,3-thiazol-4-yl)phenyl]-2,5-difluorobenzamide] |
| < 100 nM | 100 to 1000 nM | 100 to 1000 nM | 100 to 1000 nM | – | < 100 nM | CN(C)CCOc1ccc(Nc2nccc(-c3sc(-c4ccc(O)cc4)nc3-c3cccc(NC(=O)c4c(F)cccc4F)c3)n2)cc1Cl [Example 139, N-{3-[5-{2-[(3-Chloro-4-{[2-(dimethylamino)ethyl]oxy}phenyl)amino]-4-pyrimidinyl}-2-(4-hydroxyphenyl)-1,3-thiazol-4-yl]phenyl}-2,6-difluorobenzamide] |
| < 100 nM | < 100 nM | 100 to 1000 nM | < 100 nM | – | < 100 nM | NS(=O)(=O)CCc1cccc(Nc2nccc(-c3scnc3-c3cccc(NC(=O)c4cc(F)ccc4F)c3)n2)c1 [Example 100, N-(3-{5-[2-({3-[2-(Aminosulfonyl)ethyl]phenyl}amino)-4-pyrimidinyl]-1,3-thiazol-4-yl}phenyl)-2,5-difluorobenzamide trifluoroacetate] |
| < 100 nM | < 100 nM | 100 to 1000 nM | 100 to 1000 nM | – | < 100 nM | CN(C)CCOc1cccc(Nc2nccc(-c3sc(N)nc3-c3cccc(C(=O)Nc4c(F)cccc4F)c3)n2)c1 [Example 76, 3-(2-Amino-5-{2-[(3-{[2-(dimethylamino)ethyl]oxy}phenyl)amino]-4-pyrimidinyl}-1,3-thiazol-4-yl)-N-(2,6-difluorophenyl)benzamide] |
| < 100 nM | 100 to 1000 nM | 100 to 1000 nM | 100 to 1000 nM | 100 to 1000 nM | < 100 nM | CN(C)CCOc1ccc(Nc2nccc(-c3sc(-c4ccc(O)cc4)nc3-c3cccc(NC(=O)c4cc(F)ccc4F)c3)n2)cc1Cl [Example 140, N-{3-[5-{2-[(3-Chloro-4-{[2-(dimethylamino)ethyl]oxy}phenyl)amino]-4-pyrimidinyl}-2-(4-hydroxyphenyl)-1,3-thiazol-4-yl]phenyl}-2,5-difluorobenzamide] |
| < 100 nM | 100 to 1000 nM | > 1000 nM | 100 to 1000 nM | – | < 100 nM | Cc1nc(-c2cccc(NC(=O)c3c(F)cccc3F)c2)c(-c2ccnc(Nc3cccc(OCCN(C)C)c3)n2)s1 [Example 102, N-[3-(5-{2-[(3-{[2-(Dimethylamino)ethyl]oxy}phenyl)amino]-4-pyrimidinyl}-2-methyl-1,3-thiazol-4-yl)phenyl]-2,6-difluorobenzamide] |
| < 100 nM | 100 to 1000 nM | > 1000 nM | < 100 nM | > 1000 nM | < 100 nM | CN(C)CCOc1cccc(Nc2nccc(-c3scnc3-c3cccc(NC(=O)c4cc(F)ccc4F)c3)n2)c1 [Example 96, N-[3-(5-{2-[(3-{[2-(Dimethylamino)ethyl]oxy}phenyl)amino]-4-pyrimidinyl}-1,3-thiazol-4-yl)phenyl]-2,5-difluorobenzamide] |
| < 100 nM | < 100 nM | 100 to 1000 nM | < 100 nM | > 1000 nM | < 100 nM | CN(C)CCOc1cccc(Nc2nccc(-c3sc(NCCCN4CCOCC4)nc3-c3cccc(NC(=O)c4c(F)cccc4F)c3)n2)c1 [Example 29, N-[3-(5-{2-[(3-{[2-(Dimethylamino)ethyl]oxy}phenyl)amino]-4-pyrimidinyl}-2-{[3-(4-morpholinyl)propyl]amino}-1,3-thiazol-4-yl)phenyl]-2,6-difluorobenzamide] |
| < 100 nM | 100 to 1000 nM | > 1000 nM | – | > 1000 nM | < 100 nM | COc1cccc(C(=O)Nc2cccc(-c3nc(C)sc3-c3ccnc(Nc4ccc5c(c4)CN(C)CC5)n3)c2)c1 [Example 132, N-[3-(2-Methyl-5-{2-[(2-methyl-1,2,3,4-tetrahydro-7-isoquinolinyl)amino]-4-pyrimidinyl}-1,3-thiazol-4-yl)phenyl]-3-(methyloxy)benzamide trifluoroacetate] |
